Measured values from US20230226070A1, “TREATMENT OF THROMBOSIS AND ASSOCIATED DISORDERS WITH AN ANTI-PLATELET AGENT” (THE HEART RESEARCH INSTITUTE LTD, priority 2020, published 2023).
“Also recorded” adds a separate entry of the source. Where a SMILES comes first, the peptide text is derived from it. Bridges are numbered along the chain shown (N, C = ends). [ ]: non-standard residue; d: D form. hArg = N=C(N)NCCCC[C@H](N)C(=O)O; Mpa = O=C(O)CCS

Key:
[1] = system: tail bleeding; test: 3 mm tail lop (tail transection) bleeding assay
Protocol: Bleeding was assessed using a 3 mm tail lop assay. Drug treatments (bolus) were administered 10 min before the start of tail bleeding. When a 30 min infusion was used, the tail bleeding experiment began as soon as the infusion finished. Following drug administration, a 3 mm long section of the tail tip was removed using a scalpel blade and the tail tip immersed in warmed saline. Bleeding was monitored until cessation and the time recorded. […] If the tail did re-bleed, length of time of rebleeding was also recorded. The experiment was ended when bleeding had ceased for at least 2 min, or at 30 min post-tail tip removal. Haemoglobin was quantified using 2 methods [(i, ii) using Abs 575 nm; (iii) using a colorimetric haemoglobin assay, as per the manufacturer's instructions (Sigma Aldrich, Haemoglobin Assay Kit MAK115)]. The treatment dosing regimens were as follows: rtPA (10 mg/kg: 1 mg/kg bolus, 9 mg/kg infusion over 30 min); Integrilin (1-10 mg/kg, bolus every 15 minutes); TGX221 (2.5 mg/kg; single bolus 15 minutes prior to lop); Arg—argatroban (80 ug/kg bolus; 40 ug/kg/min infusion 60). […] Data are presented as mean±SEM.
In addition, 15 minutes following commencement of treatment administration, tail transection (3 mm) was performed, and the tail tip immersed in warm (37° C.) saline to allow for blood collection from the tail (as described under “Methods”). Flow of blood was assessed over 30 minutes and any periods of blood flow cessation and rebleeding noted. Blood monitoring and collection was ceased at 30 minutes after lop, for all mice. Haemoglobin content was assessed in the collected sample using a colorimetric haemoglobin assay, as per the manufacturer's instructions (Sigma Aldrich, Haemoglobin Assay Kit MAK115). Data was analysed using a one-way ANOVA relative to Vehicle. […] The bar graph depicts mean±SD, where ***P<0.0005, ^nsP>0.05.

[2] = system: ischaemic stroke after carotid artery thrombotic occlusion and contralateral stenosis; type: in vivo
[3] = system: occlusive thrombus in the mouse carotid artery; test: carotid artery thrombosis model: occlusive thrombus formation induced by electrolytic injury, recanalisation classified from carotid blood flow; type: in vivo, C57BL/6 male mice; settings: for thrombolysis, recanalisation and vessel reocclusion (in words): dual therapy: antiplatelet agent 2.5 mg/kg together with rtPA 10 mg/kg; for comparative anti-platelet efficacy in vivo, TGX221 versus AZD6482: each 2.5 mg/kg combined with rtPA 10 mg/kg; for lysis of 4.5 hours aged clots (in words): treatment 270 min after occlusion, triple therapy versus rtPA/argatroban dual therapy; for recanalisation of older (aged) clots (in words): triple therapy: rtPA + argatroban + antiplatelet agent (2.5 mg/kg, 2x bolus), treatment 15, 120 or 270 min after occlusion
[4] = system: mouse blood/platelets; test: ADP-induced aggregation in PPACK-anticoagulated PRP (Integrilin dose-response); type: cell-based
Excerpt: Data are presented as mean±SEM.

Q: How did the “tail bleeding (in words)” value ([1]; administered alone (TGX221 2.5 mg/kg; Integrilin 3 mg/kg and above)) turn out when `Cc1cc(C(C)Nc2ccccc2)c2nc(N3CCOCC3)cc(=O)n2c1` (racemic) [TGX221, (±)-7-methyl-2-morpholin-4-yl-9-(1-phenylaminoethyl)-pyrido[1,2-a]pyrimidin-4-one] was run?
A: does not Increase Tail Bleeding

Q: And the “tail bleeding (in words)” value ([1]; in combination with rt-PA (10 mg/kg; for TGX221 also up to 20 mg/kg))?
A: promising bleeding profile

Q: What about the “vessel (carotid) recanalisation (in words)” value ([2]; triple therapy: TGX221 2.5 mg/kg + argatroban + rtPA 10 mg/kg, 5 min after stroke onset) of the same compound?
A: improved blood flow (recanalisation)

Q: And the “cerebral perfusion (in words)” value ([2]; triple therapy: TGX221 + argatroban + rtPA)?
A: improved cerebral reperfusion

Q: And the “cerebral infarct (TTC staining, in words)” value ([2]; triple therapy: TGX221 + argatroban + rtPA, 24 hours)?
A: reduced cerebral infarct

Q: What about the “thrombolysis, recanalisation and vessel reocclusion (in words)” value ([3]; 15 min after occlusion) of the same compound?
A: improves thrombolysis and vessel reocclusion over and above that achieved with rtPA alone; also recorded: effectively enhancing recanalisation

Q: And the “comparative anti-platelet efficacy in vivo, TGX221 versus AZD6482” value [3]?
A: equipotent

Q: What about the “lysis of 4.5 hours aged clots (in words)” value [3] of the same compound?
A: benefit

Q: And the “recanalisation and reocclusion (in words)” value ([3]; triple therapy: TGX221 2.5 mg/kg + argatroban + rtPA 10 mg/kg, 15 min after occlusion)?
A: improving recanalisation as well as reducing reocclusion

Q: And the “recanalisation of older (aged) clots (in words)” value [3]?
A: improving recanalization of older clots

Q: What does the source list for `Cc1cc([C@@H](C)Nc2ccccc2C(=O)O)c2nc(N3CCOCC3)cc(=O)n2c1` [AZD6482, (−)-2-({1R-[7-methyl-2-(morpholin-4-yl)-4-oxo-pyrido[1,2-a]pyrimidin-9-yl]ethyl}amino)benzoic acid]?
A: thrombolysis, recanalisation and vessel reocclusion (in words) ([3]; 15 min after occlusion): improves thrombolysis and vessel reocclusion over and above that achieved with rtPA alone; also recorded: effectively enhancing recanalisation; comparative anti-platelet efficacy in vivo, TGX221 versus AZD6482 [3]: equipotent; lysis of 4.5 hours aged clots (in words) [3]: benefit; recanalisation of older (aged) clots (in words) [3]: improving recanalization of older clots

Q: What does the source list for `N=C(N)NCCCC[C@@H]1NC(=O)CCSSC[C@@H](C(N)=O)NC(=O)[C@@H]2CCCN2C(=O)[C@H](Cc2c[nH]c3ccccc23)NC(=O)[C@H](CC(=O)O)NC(=O)CNC1=O` [Integrilin, Eptifibatide, reference compound] ([Mpa][hArg]GDWPC-NH2; disulfide 1-7)?
A: tail bleeding / safety (in words) ([1]; triple therapy with rt-PA 10 mg/kg and argatroban): accompanied by an increase in bleeding; stable recanalisation of the occluded carotid artery (in words) ([2]; integrilin 4 mg/kg every 15 min with rtPA 10 mg/kg and argatroban): enhances stable recanalisation; inhibition of ADP-induced aggregation ([4]; 3.0 mg/kg ('Stroke' dose)): approximately 60%; inhibition of ADP-induced aggregation ([4]; 4.0 mg/kg ('AMI' dose)): ~80%

Q: Which results are given for “rtPA: recombinant tissue plasminogen activator, thrombolytic agent, purchased from Boehringer Ingelheim”?
A: recanalisation category / re-thrombosis (in words) ([3]; rt-PA monotherapy 10 mg/kg, 15 min after occlusion, 60 min monitoring): induces transient recanalisation; clot lysis and recanalisation of the carotid, share of vessels ([3]; rtPA 10 mg/kg i.v. alone, 15 min after occlusion, blood flow monitored 60 min): approximately 25%
